Test results taken from US9657033B2, “Tetrahydronaphthyridine and related bicyclic compounds for inhibition of RORγ activity and the treatment of disease” (Merck Sharp & Dohme Corp., priority 2012, dated 2017).

Experiments:
[1] = molecular target: T1, RORγ-LBD (Homo sapiens (Human), UniProt P51449); test: RORγ-Ligand Binding Domain (LBD) TR-FRET Assay Protocol I; type: biochemical; settings: RORγ-LBD lysate from SF9 cells, SRC1-2 peptide
Experimental: Part I—Procedures for RORγ-Ligand Binding Domain TR-FRET Assay Protocol I
Recombinant,HIS-tagged RORγ-LBD was expressed in SF9 cells using a baculovirus expression system. Cells were lysed and the lysate was used as a source for RORγ-LBD for the assay. A 1:80 dilution of RORγ-LBD lysate in assay buffer (25 mM HEPES pH 7.0, 100 mM NaCl, 0.01% Tween, 0.1% BSA) was prepared and 5 μL was added to each well (RORγ-LBD final concentration ˜3 nM). Control wells received lysate from SF9 cells not expressing RORγ-LBD.
Compounds to be tested were diluted to 100× final test concentration in DMSO and further diluted to 4× final test concentration using assay buffer to provide the test compound mixture. An aliquot (5 μL) of the test compound mixture was added to each well.
A 4× stock of biotinylated-LXXLL peptide from SRC1-2 (Biotin-[…]) was prepared in assay buffer and a 5 μL aliquot added to each well (450 nM final concentration). A 4× solution of europium tagged anti-HIS antibody (2 nM final concentration) and APC conjugated streptavidin (60 nM final concentration) were prepared and a 5 μL aliquot added to each well.
(§1) The final assay mixture was incubated for 4 hours to overnight, and the fluorescence signal was measured on an Envision plate reader: (Excitation filter=340 nm; APC emission=665 nm; Europium emission=615 nm; dichroic mirror=D400/D630; delay time=100 μs, integration time=200 μs).
EC50 values for test compounds were calculated from the quotient of the fluorescence signal at 665 nm divided by the fluorescence signal at 615 nm using GraphPad Prism software

[2] = molecular target: T1, RORγ-LBD; test: RORγ-Ligand Binding Domain (LBD) TR-FRET Assay Protocol II; type: biochemical; settings: purified RORγ-LBD, SRC1 peptide, overnight at 4° C.
Experimental: Part II—Procedures for RORγ-Ligand Binding Domain TR-FRET Assay Protocol II
HIS-tagged RORγ-LBD protein was expressed in SF9 cells using a baculovirus expression system. The RORγ-LBD protein was purified by […]. Separately, SF9 cells not expressing recombinant protein were lysed in TBS buffer (25 mM Tris, pH 8.0, 150 mM NaCl) under sonication. The lysate was added to the purified RORγ-LBD in a volume equivalent of 0.75 μL lysate (from 30,000 SF9 cells) per 75 femtomol of RORγ-LBD protein. The resulting mixture was diluted in assay buffer (50 mM Tris pH 7.0, 50 mM KCl, 1 mM EDTA, 0.1 mM DTT, 0.01% BSA) to obtain RORγ-LBD protein at a final concentration of 3 nM.
Compounds to be tested were injected to the assay plate using Acoustic Droplet Ejection technology by Echo 550 liquid handler (Labcyte, Calif.).
A stock of biotinylated-LXXLL peptide from coactivator SRC1 (Biotin-[…]) was prepared in assay buffer and added to each well (100 nM final concentration). A solution of Europium tagged anti-HIS antibody (1.25 nM final concentration) and APC-conjugated streptavidin (8 nM final concentration) were also added to each well.
as §1, with “overnight at 4° C.,” for “for 4 hours to overnight,”, “μs). The EC50 value for test compounds was calculated from the quotient of the fluorescence signal at 665 nm divided by the fluorescence signal at 615 nm” for “μs).”

T1 sequence (P51449 269-508): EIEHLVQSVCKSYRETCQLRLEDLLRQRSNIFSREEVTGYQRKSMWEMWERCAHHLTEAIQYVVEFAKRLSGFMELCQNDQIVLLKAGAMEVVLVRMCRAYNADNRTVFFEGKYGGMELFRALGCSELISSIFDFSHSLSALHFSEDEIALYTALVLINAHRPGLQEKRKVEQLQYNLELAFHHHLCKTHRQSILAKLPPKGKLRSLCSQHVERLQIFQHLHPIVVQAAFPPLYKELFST

O=C(Nc1cnc2c(c1)N(S(=O)(=O)c1ccc(F)cc1)CCC2)c1c(F)cccc1F [Compound 36, 2,6-difluoro-N-(5-(4-fluorobenzenesulfonyl)-5,6,7,8-tetrahydro-[1,5]naphthyridin-3-yl)benzamide]
EC50 [1]: 700 nM | EC50 [2]: 202 nM

CC1COc2ncc(NC(=O)c3c(F)cccc3Cl)cc2N1S(=O)(=O)c1ccc(F)cc1 (centres unmarked) [Compound 12, 2-chloro-6-fluoro-N-[1-(4-fluorobenzenesulfonyl)-2-methyl-2,3-dihydro-1H-pyrido[2,3-b][1,4]oxazin-7-yl]benzamide]
EC50 [1]: 250 nM | EC50 [2]: 66 nM

CC(=O)NC[C@H]1CN(S(=O)(=O)c2cccc(C)c2)c2cc(NC(=O)c3c(F)cccc3Cl)cnc2O1 [Compound 16, (S)-N-(3-(acetamidomethyl)-1-(m-tolylsulfonyl)-2,3-dihydro-1H-pyrido[2,3-b][1,4]oxazin-7-yl)-2-chloro-6-fluorobenzamide]
EC50 [1]: 336 nM | EC50 [2]: 123 nM

CC1COc2ncc(NC(=O)c3c(F)cccc3Cl)cc2N1S(=O)(=O)c1cccc(C#N)c1 (centres unmarked) [Compound 20]
EC50 [1]: 390 nM | EC50 [2]: 108 nM

Cc1nn(C(F)F)cc1S(=O)(=O)n1ncc2cnc(NC(=O)c3c(F)cccc3Cl)cc21 [Compound 11]
EC50 [1]: 447 nM | EC50 [2]: 324 nM

CC(=O)NC[C@H]1CN(S(=O)(=O)c2cccc(C)c2)c2cc(NC(=O)[C@@H](C)c3ccccc3)cnc2O1 [Compound 17, (S)-N-((S)-3-(Acetamidomethyl)-1-(m-tolylsulfonyl)-2,3-dihydro-1H-pyrido[2,3-b][1,4]oxazin-7-yl)-2-phenylpropanamide]
EC50 [1]: 760 nM | EC50 [2]: 107 nM

O=C(Nc1cnc2cnn(S(=O)(=O)c3cccc(C(F)(F)F)c3)c2c1)c1c(F)cccc1Cl [Compound 1, 2-chloro-6-fluoro-N-[1-(3-trifluoromethylbenzenesulfonyl)-1H-pyrazolo[4,3-b]pyridin-6-yl]benzamide]
EC50 [1]: 1880 nM | EC50 [2]: 25 nM

CCc1cccc(S(=O)(=O)N2C[C@H](C)Oc3ncc(NC(=O)c4c(F)cccc4Cl)cc32)c1 [Compound 15, (S)-2-chloro-N-(1-((3-ethylphenyl)sulfonyl)-3-methyl-2,3-dihydro-1H-pyrido-[2,3-b][1,4]oxazin-7-yl)-6-fluorobenzamide]
EC50 [1]: 31 nM | EC50 [2]: 10 nM

Cc1cccc(S(=O)(=O)N2C[C@H](C)Oc3ncc(NC(=O)c4c(F)cccc4Cl)cc32)c1 [Compound 14, (S)-2-chloro-6-fluoro-N-(3-methyl-1-(m-tolylsulfonyl)-2,3-dihydro-1H-pyrido[2,3-b][1,4]oxazin-7-yl)benzamide]
EC50 [1]: 166 nM | EC50 [2]: 22 nM

C[C@H]1CN(S(=O)(=O)c2ccc(F)cc2)c2cc(NC(=O)c3c(F)cccc3Cl)cnc2O1 [Compound 26]
EC50 [1]: 829 nM | EC50 [2]: 63 nM
